Assay results as given in patent US20230381142A1, “ANTILEISHMANIAL COMPOUNDS, COMPOSITIONS AND USE THEREOF” (TRUSTEES OF BOSTON UNIVERSITY, priority 2022, published 2023).
Values after ≈ are worked out from the molar mass of the structure shown. Where two headings read alike, the source gives them in different places. Marks after values point to notes of the source that are not given here.

Legend:
[1] = GSK inMac assay, host cell toxicity readout (LD MAC); type: cell-based, human; conditions: human; footnote c; read-out: THP-1 Host Cell CC50
Summary of the method: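 MAC EC50 reflects THP-1 host cell counts, measured within GSK's inMac L. donovani infection assay that also scores intracellular amastigotes and infected-cell percentage.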

[2] = test system: L. major (strain Friedlin) in J774 cells; test: J774 luciferase infection assay (Assay Conditions E); type: cell-based, Leishmania major; conditions: values marked e
Experimental: (§1) Assay Conditions E: J774 cells (ATCC J774A.1 were grown in DMEM supplemented with 10% Fetal Bovine Serum (FBS) and 1% Penicillin-Streptomycin at 37° C. in 5% CO2. Leishmania parasites expressing luciferase and GFP were grown as described in Front. Cell. Infect. Microbiol (2019) 9:237. J774 cells were seeded in microwell plates at 3×10^5 cells/mL density. Cells were washed with PBS and incubated with complete DMEM medium containing stationary phase Leishmania promastigotes (L. major: strain Friedlin; L. braziliensis, strain BA788) at a 1:10 parasite-cell ratio for 24 h. Cells were washed with PBS. Cells and compounds were incubated for 48 h at 37° C. and 5% C02. Compounds were tested in 8-point 2-fold serial dilution in 4 technical replicates, and 2 biological replicates. After 48 h, OneTiterGlo (Promega) (100 μl) was added to each well. Plates were incubated for 15 min and bioluminescence was measured using a plate reader (Molecular Devices). Effective concentration inducing 75% activity (EC75) was calculated using GraphPad Prism Software (version 9.0).

[3] = UCSD infection assay, host cell cytotoxicity (CC50); type: cell-based; conditions: mouse, B10R host cells infected with L. donovani; footnote d
[4] = test system: L. donovani intracellular amastigotes in B10R cells; test: UCSD L. donovani infection assay (Assay Conditions D); type: cell-based; conditions: for L. donovani amastigotes EC75 (B10R cells): footnote d; for EC50 / IC50: Leishmania donovani
Summary of the method: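 Compounds, either single-point at 10 μM or 10-point 2-fold series (3 technical, 2 biological replicates), were incubated 72 h at 37° C. with B10R host cells co-seeded with day-7 stationary L. donovani promastigotes (20:1). DAPI-stained nuclei imaging yielded intracellular parasite EC50 and host-cell CC50.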

[5] = test system: L. braziliensis (strain BA788) in J774 cells; test: J774 luciferase infection assay (Assay Conditions E); type: cell-based, Leishmania braziliensis; conditions: footnote e
Experimental: as §1

[6] = Kinetic aqueous solubility by CAD; type: physicochemical; conditions: aqueous medium, kinetic from dmso stock, high-throughput CAD
Experimental: Solubility of compounds using ChemiLuminescent Nitrogen Detection (CLND) was measured as described. Solubility of compounds using Charged Aerosol Detection (CAD) was measured as described. Solubility of solid compounds in Fasted Simulated Intestinal Fluid (FaSSIF) was measured as described.

[7] = UCSD infection assay, host cell cytotoxicity (CC50); type: cell-based; conditions: host macrophages infected with L. donovani; cytotoxicity against host macrophages
[8] = Property forecast index (PFI = ChromLogD7.4 + aromatic rings); type: physicochemical
[9] = test system: L. donovani intracellular amastigotes infecting THP-1 macrophages; test: GSK intramacrophage L. donovani assay (LD AMMAC, inMac; Assay Conditions C); type: cell-based; conditions: Leishmania donovani, THP-1
Summary of the method: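 EC50 values come from counting amastigotes per infected THP-1 macrophage (AMMAC). Parallel read-outs give percentage of infected cells per well (INFCELL) and a macrophage-number toxicity EC50 (MAC).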

[10] = target: human serum albumin (Homo sapiens, UniProt P02768); test: Human serum albumin (HSA) binding, chromatographic; type: in vitro ADME
Sequence of human serum albumin (P02768 25-609): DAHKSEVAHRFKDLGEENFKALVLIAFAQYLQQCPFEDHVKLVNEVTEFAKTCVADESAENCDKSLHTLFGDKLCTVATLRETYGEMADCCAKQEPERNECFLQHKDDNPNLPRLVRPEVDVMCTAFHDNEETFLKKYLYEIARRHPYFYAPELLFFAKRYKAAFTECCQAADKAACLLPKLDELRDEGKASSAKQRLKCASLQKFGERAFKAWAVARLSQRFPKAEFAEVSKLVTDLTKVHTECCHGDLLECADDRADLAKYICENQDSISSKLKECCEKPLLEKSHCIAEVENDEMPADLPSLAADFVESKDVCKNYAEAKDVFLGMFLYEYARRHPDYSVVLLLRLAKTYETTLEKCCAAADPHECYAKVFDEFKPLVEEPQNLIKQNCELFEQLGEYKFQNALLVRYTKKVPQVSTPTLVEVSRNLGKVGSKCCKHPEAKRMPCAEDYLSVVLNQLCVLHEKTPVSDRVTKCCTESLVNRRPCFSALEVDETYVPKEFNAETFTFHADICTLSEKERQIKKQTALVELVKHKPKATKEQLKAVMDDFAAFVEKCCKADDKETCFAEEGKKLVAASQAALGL
Experimental: The percentage of compound bound to human serum albumin was measured using a chromatographic method as described. Briefly, each compound was assayed on an immobilized HSA column and gradient retention times measured, with chromatographic peak detection by UV. Each retention time was then converted to a % HSA bound value using a calibration set of compounds with a known % HSA binding.

[11] = B10R cells, values marked d, read-out: L. donovani amastigotes EC50 (B10R cells)
[12] = average of two biological replicates, read-out: L. donovani EC50 (UCSD assay)

SMILES | CC50 [1] | L. major amastigotes EC75 (J774 cells) [2] | CC50 at 72 h [3] | L. donovani amastigotes EC75 (B10R cells) ([4]; B10R cells) | EC50 [4, 11] | L. braziliensis amastigotes EC75 (J774 cells) [5] | solubility [6] | CC50 at 72 h [7] | PFI [8] | IC50 [4] | EC50 [4, 12] | IC50 [9] | HSA Binding [10]
COc1ccc(N2C(=O)c3[nH]nc(CC(C)C)c3C2c2ccccc2Cl)cn1 (stereo not drawn) [BUCMD00686] | 9900 nM | >10^e μM | 10000 nM | 500 nM | 1100 nM | 1000 nM | – | – | – | – | – | – | –
CC(C)Cc1n[nH]c2c1C(c1ccccc1Cl)N(c1ccc3c(c1)OCO3)C2=O (stereo not drawn) [CMLD010902] | 12200 nM | 7.3^e μM | – | – | 200 nM | >10000 nM | – | – | – | – | – | – | –
CC(C)Cc1n[nH]c2c1C(c1ccccc1Br)N(c1ccc3c(c1)OCO3)C2=O (stereo not drawn) [CMLD011548] | > 20000 nM | 1.8^e μM | – | – | 300 nM | 5200 nM | – | – | – | – | – | – | –
COc1cc(F)ccc1C1c2c(CC(C)C)n[nH]c2C(=O)N1c1ccc(N(C)C)cc1 (stereo not drawn) [CMLD011572] | 8500 nM | 1.3^e μM | 10000 nM | – | – | 1900 nM | – | – | – | – | – | – | –
COc1ccc(N2C(=O)c3[nH]nc(CC(C)C)c3C2c2ccc(F)cc2OC)cn1 (stereo not drawn) [CMLD011574] | > 20000 nM | 4.8^e μM | – | 300 nM | 300 nM | 8200 nM | – | – | – | – | – | – | –
CC(C)Cc1n[nH]c2c1C(c1ccccc1Cl)N(c1ccc3c(c1)OCO3)C2=O (stereo not drawn) [Compound 67, 5-(benzo[d][1,3]dioxol-5-yl)-4-(2-chlorophenyl)-3-isobutyl-4,5-dihydropyrrolo[3,4-c]pyrazol-6(1H)-one] | – | – | – | – | – | – | 35 µM (≈ 14.3 µg/mL) | 12200 nM | 8.7 | 200 nM | 160 nM | 500 nM | 98.0%
Cc1cc(F)ccc1C1c2c(CC(C)C)n[nH]c2C(=O)N1c1ccc2c(c1)OCO2 (stereo not drawn) [Compound 70, 5-(benzo[d][1,3]dioxol-5-yl)-4-(4-fluoro-2-methylphenyl)-3-isobutyl-4,5-dihydropyrrolo[3,4-c]pyrazol-6(1H)-one] | – | – | – | – | – | – | 46 µM (≈ 18.7 µg/mL) | 12100 nM | 8.6 | 100 nM | 100 nM | > 100000 nM | 97.6%
COc1ccc(N2C(=O)c3[nH]nc(CC(C)C)c3C2c2ccccc2OC)cc1F (stereo not drawn) [Compound 72, 5-(3-fluoro-4-methoxyphenyl)-3-isobutyl-4-(2-methoxyphenyl)-4,5-dihydropyrrolo[3,4-c]pyrazol-6(1H)-one] | – | – | – | – | – | – | 43 µM (≈ 17.6 µg/mL) | 260 nM | 8.5 | 400 nM | 380 nM | 1300 nM | 95.9%
COc1ccc(N2C(=O)c3[nH]nc(CC(C)C)c3C2c2ccc(F)cc2C)cc1F (stereo not drawn) [Compound 73, 4-(4-fluoro-2-methylphenyl)-5-(3-fluoro-4-methoxyphenyl)-3-isobutyl-4,5-dihydropyrrolo[3,4-c]pyrazol-6(1H)-one] | – | – | – | – | – | – | 35 µM (≈ 14.4 µg/mL) | 10900 nM | 8.8 | 200 nM | 160 nM | 3200 nM | 96.3%
CC(C)Cc1n[nH]c2c1C(c1ccccc1Br)N(c1ccc(Br)cc1)C2=O (stereo not drawn) [Compound 74, 4-(2-bromophenyl)-5-(4-bromophenyl)-3-isobutyl-4,5-dihydropyrrolo[3,4-c]pyrazol-6(1H)-one] | – | – | – | – | – | – | < 1 µM | 4980 nM | 10.4 | 400 nM | 390 nM | 10000 nM | 98.0%
COc1ccccc1C1c2c(CC(C)C)n[nH]c2C(=O)N1c1ccc(Br)cc1 (stereo not drawn) [Compound 75, 5-(4-bromophenyl)-3-isobutyl-4-(2-methoxyphenyl)-4,5-dihydropyrrolo[3,4-c]pyrazol-6(1H)-one] | – | – | – | – | – | – | < 1 µM | 1140 nM | 9.6 | 200 nM | 240 nM | 500 nM | 97.5%
Cc1cc(F)ccc1C1c2c(CC(C)C)n[nH]c2C(=O)N1c1ccc(Br)cc1 (stereo not drawn) [Compound 76, 5-(4-bromophenyl)-4-(4-fluoro-2-methylphenyl)-3-isobutyl-4,5-dihydropyrrolo[3,4-c]pyrazol-6(1H)-one] | – | – | – | – | – | – | < 1 µM | 3040 nM | 9.8 | 100 nM | 120 nM | 600 nM | 97.7%
COc1cc(F)ccc1C1c2c(CC(C)C)n[nH]c2C(=O)N1c1ccc(Br)cc1 (stereo not drawn) [Compound 77, 5-(4-bromophenyl)-4-(4-fluoro-2-methoxyphenyl)-3-isobutyl-4,5-dihydropyrrolo[3,4-c]pyrazol-6(1H)-one] | – | – | – | – | – | – | < 1 µM | 4040 nM | 9.7 | 100 nM | 120 nM | 100 nM | 98.5%
CC(C)Cc1n[nH]c2c1C(c1ccccc1Cl)N(c1ccc(N(C)C)cc1)C2=O (stereo not drawn) [Compound 78, 4-(2-chlorophenyl)-5-(4-(dimethylamino)phenyl)-3-isobutyl-4,5-dihydropyrrolo[3,4-c]pyrazol-6(1H)-one] | – | – | – | – | – | – | 21 µM (≈ 8.59 µg/mL) | 7320 nM | 9.4 | 300 nM | 260 nM | 800 nM | 96.7%
COc1ccccc1C1c2c(CC(C)C)n[nH]c2C(=O)N1c1ccc(N(C)C)cc1 (stereo not drawn) [Compound 80, 5-(4-(dimethylamino)phenyl)-3-isobutyl-4-(2-methoxyphenyl)-4,5-dihydropyrrolo[3,4-c]pyrazol-6(1H)-one] | – | – | – | – | – | – | 66 µM (≈ 26.7 µg/mL) | 3450 nM | 8.6 | 100 nM | 70 nM | 200 nM | 95.7%
Cc1cc(F)ccc1C1c2c(CC(C)C)n[nH]c2C(=O)N1c1ccc(N(C)C)cc1 (stereo not drawn) [Compound 81, 5-(4-(dimethylamino)phenyl)-4-(4-fluoro-2-methylphenyl)-3-isobutyl-4,5-dihydropyrrolo[3,4-c]pyrazol-6(1H)-one] | – | – | – | – | – | – | 27 µM (≈ 11 µg/mL) | 7510 nM | 9.1 | 100 nM | 110 nM | 100 nM | 96.5%
COc1cc(F)ccc1C1c2c(CC(C)C)n[nH]c2C(=O)N1c1ccc(N(C)C)cc1 (stereo not drawn) [Compound 82, 5-(4-(dimethylamino)phenyl)-4-(4-fluoro-2-methoxyphenyl)-3-isobutyl-4,5-dihydropyrrolo[3,4-c]pyrazol-6(1H)-one] | – | – | – | – | – | – | 45 µM (≈ 19 µg/mL) | 8500 nM | 8.8 | – | 40 nM | 4000 nM | 97.1%
COc1ccc(N2C(=O)c3[nH]nc(CC(C)C)c3C2c2ccccc2OC)cn1 (stereo not drawn) [Compound 85, 3-isobutyl-4-(2-methoxyphenyl)-5-(6-methoxypyridin-3-yl)-4,5-dihydropyrrolo[3,4-c]pyrazol-6(1H)-one] | – | – | – | – | – | – | 176 µM (≈ 69.1 µg/mL) | > 20000 nM | 8.0 | 1100 nM | 1110 nM | 7900 nM | 93.9%
Cc1cc(F)ccc1C1c2c(CC(C)C)n[nH]c2C(=O)N1c1ccc2ncnn2c1 (stereo not drawn) [Compound 89, 5-([1,2,4]triazolo[1,5-a]pyridin-6-yl)-4-(4-fluoro-2-methylphenyl)-3-isobutyl-4,5-dihydropyrrolo[3,4-c]pyrazol-6(1H)-one] | – | – | – | – | – | – | < 1 µM | > 20000 nM | 8.1 | 900 nM | 870 nM | 1600 nM | 93.2%
